Structures can show the parent of a compound that is named as a salt.
What follows are compounds tested on influx of neutrophils to the lung in LPS-challenged rats (assay: Rat LPS neutrophilia model). Settings: intratracheal, LPS aerosol 100 ug/ml 15 min, lavage 4 hours later, in at least one of the range of conditions tested, significant p<0.05, nonsignificant p>0.05.
Format: in vivo
Procedure: The effect of compounds on the influx of neutrophils to the lung in LPS-challenged rats is evaluated as follows. The test compound is suspended in one of the following solutions: 0.5% tween 80/PBS, 0.5% tween 80/saline, 10% EtOH/saline (with pH adjusted to 2.0, or 8.0 with HCl, or unadjusted), Saline @ pH 2.0, 6.5 or 8.0, 0.5% Tragacanth, 1% DMSO/20% Encapsin/Saline, or acidified 5% Tragacanth. The suspension process may be aided by the use of a glass homogenizer. For intratracheal administration, the animals are anesthetized with inhaled isoflurane and placed in a supine position, the trachea is intubated with a steel gavage needle (1.5 inch, 22 gauge, small ball) or a Penn-Century Microsprayer Aerosolizer (model IA-IB) and 200 ul of dosing solution is delivered. The animals are visually monitored during the recovery process, which typically occurs within two minutes. It is noted that the test compounds may be alternatively administered via the microsprayer in a dry powder blend with a suitable excipient, such as lactose.
Rats treated with compound or vehicle (15 min-24 hours pretreatment) are exposed to an LPS aerosol (100 ug/ml) for 15 min. Four hours later the rats are euthanized with pentobarbital (100 mg/kg, i.p.) and the airways are lavaged with 5 washes of 5 ml of phosphate buffered saline. The harvested cells are stained (Diffquick) and counted to determine total and differential cell data. […] Inhibition of neutrophil levels relative to no compound controls is calculated based on the differential counts.
The data is obtained as % inhibition using a particular concentration and pretreat time.

| SMILES | inhibition of neutrophilia (neutrophil levels in lung lavage relative to no compound controls) |
| --- | --- |
| Cc1ccc(C(=O)NC2CC2)cc1-c1nc(N2CCC(N3CCC(C)CC3)CC2)nc2c1ccc(=O)n2-c1c(F)cccc1F [Example 178, N-cyclopropyl-3-[8-(2,6-difluorophenyl)-2-(4-methyl-1,4′-bipiperidin-1′-yl)-7-oxo-7,8-dihydropyrido[2,3-d]pyrimidin-4-yl]-4-methylbenzamide] | statistically nonsignificant inhibition |
| Cc1ccc(NC(=O)c2cccc3cc[nH]c23)cc1-c1nc(NC(CO)CO)nc2c1ccc(=O)n2-c1c(F)cccc1F [Example 44, N-[3-(8-(2,6-difluorophenyl)-2-{[2-hydroxy-1-(hydroxymethyl)ethyl]amino}-7-oxo-7,8-dihydropyrido[2,3-d]pyrimidin-4-yl)-4-methylphenyl]-1H-indole-7-carboxamide trifluoroacetate] | statistically significant inhibition |
| CCN(CC)CCCNc1nc(-c2cc(C(=O)NC3CCC3)ccc2C)c2ccc(=O)n(-c3c(F)cccc3F)c2n1 [Example 137, N-cyclobutyl-3-[2-{[3-(diethylamino)propyl]amino}-8-(2,6-difluorophenyl)-7-oxo-7,8-dihydropyrido[2,3-d]pyrimidin-4-yl]-4-methylbenzamide trifluoroacetate] | statistically significant inhibition |
| CCN(CC)CCCNc1nc(-c2cc(C(=O)N[C@@H](C)c3ccccc3)ccc2C)c2ccc(=O)n(-c3c(F)cccc3F)c2n1 [Example 149, 3-[2-{[3-(diethylamino)propyl]amino}-8-(2,6-difluorophenyl)-7-oxo-7,8-dihydropyrido[2,3-d]pyrimidin-4-yl]-4-methyl-N-[(1S)-1-phenylethyl]benzamide] | inactive |
| Cc1ccc(C(=O)NCC2CC2)cc1-c1nc(N2CCC(N)CC2)nc2c1ccc(=O)n2-c1c(F)cccc1F [Example 27, 3-[2-(4-amino-1-piperidinyl)-8-(2,6-difluorophenyl)-7-oxo-7,8-dihydropyrido[2,3-d]pyrimidin-4-yl]-N-(cyclopropylmethyl)-4-methylbenzamide] | statistically significant inhibition |
| CNCCNc1nc(-c2cc(C(=O)NCCc3ccccc3)ccc2C)c2ccc(=O)n(-c3c(F)cccc3F)c2n1 [Example 29, 3-(8-(2,6-difluorophenyl)-2-{[2-(methylamino)ethyl]amino}-7-oxo-7,8-dihydropyrido[2,3-d]pyrimidin-4-yl)-4-methyl-N-(2-phenylethyl)benzamide] | statistically significant inhibition |
| Cc1ccc(C(=O)Nc2ccc(F)cc2)cc1-c1nc(N(C)CCCN(C)C)nc2c1ccc(=O)n2-c1c(F)cccc1F [Example 115, 3-{8-(2,6-difluorophenyl)-2-[[3-(dimethylamino)propyl](methyl)amino]-7-oxo-7,8-dihydropyrido[2,3-d]pyrimidin-4-yl}-N-(4-fluorophenyl)-4-methylbenzamide] | statistically nonsignificant inhibition |
| Cc1ccc(C(=O)Nc2nccs2)cc1-c1nc(NCCCNC(C)C)nc2c1ccc(=O)n2-c1c(F)cccc1F [Example 101, 3-[8-(2,6-difluorophenyl)-2-({3-[(1-methylethyl)amino]propyl}amino)-7-oxo-7,8-dihydropyrido[2,3-d]pyrimidin-4-yl]-4-methyl-N-1,3-thiazol-2-ylbenzamide] | statistically significant inhibition |
| Cc1ccc(C(=O)Nc2ccc(F)cc2)cc1-c1nc(N2CCC(N3CCC(C)CC3)CC2)nc2c1ccc(=O)n2-c1c(F)cccc1F [Example 174, 3-[8-(2,6-difluorophenyl)-2-(4-methyl-1,4′-bipiperidin-1′-yl)-7-oxo-7,8-dihydropyrido[2,3-d]pyrimidin-4-yl]N-(4-fluorophenyl)-4-methylbenzamide] | inactive |
| CNCCNc1nc(-c2cc(C(=O)Nc3ccc(F)cc3)ccc2C)c2ccc(=O)n(-c3c(F)cccc3F)c2n1 [Example 60, 3-(8-(2,6-difluorophenyl)-2-{[2-(methylamino)ethyl]amino}-7-oxo-7,8-dihydropyrido[2,3-d]pyrimidin-4-yl)-N-(4-fluorophenyl)-4-methylbenzamide] | statistically significant inhibition |
| CCN(CC)CCCNc1nc(-c2cc(C(=O)Nc3ccc(F)cc3)ccc2C)c2ccc(=O)n(-c3c(F)cccc3F)c2n1 [Example 160, 3-[2-{[3-(diethylamino)propyl]amino}-8-(2,6-difluorophenyl)-7-oxo-7,8-dihydropyrido[2,3-d]pyrimidin-4-yl]-N-(4-fluorophenyl)-4-methylbenzamide] | statistically significant inhibition |
| CCN(CC)CCCNc1nc(-c2cc(C(=O)N[C@H](C)C(C)C)ccc2C)c2ccc(=O)n(-c3c(F)cccc3F)c2n1 [Example 130] | statistically nonsignificant inhibition |
| CCN(CC)CCCNc1nc(-c2cc(C(=O)NCC3CCCCC3)ccc2C)c2ccc(=O)n(-c3c(F)cccc3F)c2n1 [Example 135, N-(cyclohexylmethyl)-3-[2-{[3-(diethylamino)propyl]amino}-8-(2,6-difluorophenyl)-7-oxo-7,8-dihydropyrido[2,3-d]pyrimidin-4-yl]-4-methylbenzamidetrifluoroacetate] | inactive |
| Cc1ccc(C(=O)NCc2ccccc2)cc1-c1nc(NCc2ncc[nH]2)nc2c1ccc(=O)n2-c1c(F)cccc1F [Example 77, 3-{8-(2,6-difluorophenyl)-2-[(1H-imidazol-2-ylmethyl)amino]-7-oxo-7,8-dihydropyrido[2,3-d]pyrimidin-4-yl}-4-methyl-N-(phenylmethyl)benzamide] | statistically significant inhibition |
| CNCCNc1nc(-c2cc(C(=O)NC3CCCC3)ccc2C)c2ccc(=O)n(-c3c(F)cccc3F)c2n1 [Example 58, N-cyclopentyl-3-(8-(2,6-difluorophenyl)-2-{[2-(methylamino)ethyl]amino}-7-oxo-7,8-dihydropyrido[2,3-d]pyrimidin-4-yl)-4-methylbenzamide] | statistically significant inhibition |
| Cc1ccc(C(=O)NC2CCCC2)cc1-c1nc(NCc2ncc[nH]2)nc2c1ccc(=O)n2-c1c(F)cccc1F [Example 76, N-cyclopentyl-3-{8-(2,6-difluorophenyl)-2-[(1H-imidazol-2-ylmethyl)amino]-7-oxo-7,8-dihydropyrido[2,3-d]pyrimidin-4-yl}-4-methylbenzamide] | statistically nonsignificant inhibition |
| Cc1ccc(C(=O)NCC(C)C)cc1-c1nc(N2CCC(N3CCC(C)CC3)CC2)nc2c1ccc(=O)n2-c1c(F)cccc1F [Example 168, 3-[8-(2,6-difluorophenyl)-2-(4-methyl-1,4′-bipiperidin-1′-yl)-7-oxo-7,8-dihydropyrido[2,3-d]pyrimidin-4-yl]-4-methyl-N-(2-methylpropyl)benzamide] | inactive |
| Cc1ccc(C(=O)Nc2nccs2)cc1-c1nc(NC2CC(C)(C)NC(C)(C)C2)nc2c1ccc(=O)n2-c1c(F)cccc1F [Example 67, 3-{8-(2,6-difluorophenyl)-7-oxo-2-[(2,2,6,6-tetramethyl-4-piperidinyl)amino]-7,8-dihydropyrido[2,3-d]pyrimidin-4-yl}-4-methyl-N-1,3-thiazol-2-ylbenzamide] | statistically nonsignificant inhibition |
| Cc1ccc(C(=O)Nc2ccc(F)cc2)cc1-c1nc(N(C)CCN(C)C)nc2c1ccc(=O)n2-c1c(F)cccc1F [Example 99, 3-{8-(2,6-difluorophenyl)-2-[[2-(dimethylamino)ethyl](methyl)amino]-7-oxo-7,8-dihydropyrido[2,3-d]pyrimidin-4-yl}-N-(4-fluorphenyl)-4-methylbenzamide] | statistically nonsignificant inhibition |
| CCN(CC)CCCNc1nc(-c2cc(C(=O)Nc3ccccc3)ccc2C)c2ccc(=O)n(-c3c(F)cccc3F)c2n1 [Example 147, 3-[2-{[3-(diethylamino)propyl]amino}-8-(2,6-difluorophenyl)-7-oxo-7,8-dihydropyrido[2,3-d]pyrimidin-4-yl]-4-methyl-N-phenylbenzamide] | statistically nonsignificant inhibition |
| Cc1ccc(C(=O)Nc2nccs2)cc1-c1nc(N(C)CCCN(C)C)nc2c1ccc(=O)n2-c1c(F)cccc1F [Example 107, 3-{8-(2,6-difluorophenyl)-2-[[3-(dimethylamino)propyl](methyl)amino]-7-oxo-7,8-dihydropyrido[2,3-d]pyrimidin-4-yl}-4-methyl-N-1,3-thiazol-2-ylbenzamide] | statistically significant inhibition |
